Test results reported in patent US9290478B2, “Substituted quinoxalines as FGFR kinase inhibitors” (ASTEX THERAPEUTICS LTD, priority 2010, dated 2016).

Tests used:
[1] = tested on: Ba/F3-KDR-transfected cells; assay: Ba/F3-KDR (minus IL3 or plus IL3) cellular proliferation assay; assay type: cell-based; conditions: 24 h; plus 10 ng/ml murine IL3 (counterscreen); read-out: BAF3-KDR (PLUS IL3) pIC50 (converted)
Method: (§1) Ba/F3-KDR (Minus IL3 or Plus IL3) (Cellular Proliferation Assay)
(§2) In a 384 well plate, 100 nI of compound dilution in DMSO was sprayed before adding 50 μl cell culture medium (phenol red free RPMI-1640, 10% FBS, 2 mM L-Glutamine and 50 μg/ml Gentamycin) containing 20000 cells per well of Ba/F3-KDR-transfected cells. Cells were put in an incubator at 37° C. and 5% CO2. After 24 hours, 10 μl of Alamar Blue solution (0.5 mM K3Fe(CN)6, 0.5 mM K4Fe(CN)6, 0.15 mM Resazurin and 100 mM Phosphate Buffer) was added to the wells, incubated for 4 hours at 37° C. and 5% CO2 before RFU's (Relative Fluorescence Units) (ex. 540 nm., em. 590 nm.) were measured in a fluororescence plate reader.
(§3) In this assay, the inhibitory effect of different compound concentrations (range 10 μM to 0.1 nM) was determined and used to calculate an IC50 (M) and pIC50 (−log IC50) value. As a counterscreen the same experiment was performed in the presence of 10 ng/ml murine IL3.

[2] = target: T1, Ba/F3-KDR-transfected cells (Homo sapiens, UniProt P35968); assay: as above; assay type: cell-based; conditions: minus IL3
T1 construct: BAF3-KDR (MIN IL3) pIC50; other: minus IL3
T1 sequence (P35968 whole entry, change not shown): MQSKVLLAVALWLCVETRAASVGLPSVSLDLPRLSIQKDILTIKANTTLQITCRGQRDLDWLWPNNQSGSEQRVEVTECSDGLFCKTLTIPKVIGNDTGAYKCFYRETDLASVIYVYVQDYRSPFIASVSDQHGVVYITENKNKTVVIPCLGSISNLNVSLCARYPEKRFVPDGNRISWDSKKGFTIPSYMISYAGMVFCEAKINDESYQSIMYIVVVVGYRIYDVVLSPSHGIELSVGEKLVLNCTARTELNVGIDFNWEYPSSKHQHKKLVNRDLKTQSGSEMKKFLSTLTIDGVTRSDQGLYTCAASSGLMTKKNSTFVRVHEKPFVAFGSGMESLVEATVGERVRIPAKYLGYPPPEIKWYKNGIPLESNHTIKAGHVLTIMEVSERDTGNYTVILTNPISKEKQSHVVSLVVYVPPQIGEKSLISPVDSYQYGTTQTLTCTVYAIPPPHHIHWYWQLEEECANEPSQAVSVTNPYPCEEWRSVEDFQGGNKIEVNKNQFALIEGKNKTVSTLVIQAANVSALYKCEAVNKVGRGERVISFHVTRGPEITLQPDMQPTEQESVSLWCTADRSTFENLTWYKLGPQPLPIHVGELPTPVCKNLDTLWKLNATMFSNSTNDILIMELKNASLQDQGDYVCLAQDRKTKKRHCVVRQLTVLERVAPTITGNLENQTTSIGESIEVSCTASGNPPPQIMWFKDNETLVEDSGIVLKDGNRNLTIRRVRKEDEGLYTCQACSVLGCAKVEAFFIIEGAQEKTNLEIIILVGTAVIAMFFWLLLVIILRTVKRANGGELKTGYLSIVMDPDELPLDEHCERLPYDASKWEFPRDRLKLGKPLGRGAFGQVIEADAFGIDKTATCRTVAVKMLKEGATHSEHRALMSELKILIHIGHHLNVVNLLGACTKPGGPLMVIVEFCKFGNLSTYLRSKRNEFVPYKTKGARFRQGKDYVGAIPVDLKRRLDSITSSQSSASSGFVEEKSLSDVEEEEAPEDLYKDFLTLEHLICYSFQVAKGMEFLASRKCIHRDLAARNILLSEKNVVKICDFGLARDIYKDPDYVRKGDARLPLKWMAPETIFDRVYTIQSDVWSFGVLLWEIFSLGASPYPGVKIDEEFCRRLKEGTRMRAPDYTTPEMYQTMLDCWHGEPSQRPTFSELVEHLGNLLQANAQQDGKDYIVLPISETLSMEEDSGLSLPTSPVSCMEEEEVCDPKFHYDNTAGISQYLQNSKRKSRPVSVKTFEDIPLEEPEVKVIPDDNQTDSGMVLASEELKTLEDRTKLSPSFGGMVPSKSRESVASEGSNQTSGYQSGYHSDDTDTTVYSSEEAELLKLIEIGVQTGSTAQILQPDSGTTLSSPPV
Method: as §1, §2, §3

[3] = target: T2, Ba/F3-FGFR3-transfected cells (Homo sapiens, UniProt P22607); assay: Ba/F3-FGFR3 (minus IL3 or plus IL3) cellular proliferation assay; assay type: cell-based; conditions: minus IL3
T2 construct: BAF3-FGFR3 (MIN IL3) pIC50; other: minus IL3
T2 sequence (P22607 whole entry, change not shown): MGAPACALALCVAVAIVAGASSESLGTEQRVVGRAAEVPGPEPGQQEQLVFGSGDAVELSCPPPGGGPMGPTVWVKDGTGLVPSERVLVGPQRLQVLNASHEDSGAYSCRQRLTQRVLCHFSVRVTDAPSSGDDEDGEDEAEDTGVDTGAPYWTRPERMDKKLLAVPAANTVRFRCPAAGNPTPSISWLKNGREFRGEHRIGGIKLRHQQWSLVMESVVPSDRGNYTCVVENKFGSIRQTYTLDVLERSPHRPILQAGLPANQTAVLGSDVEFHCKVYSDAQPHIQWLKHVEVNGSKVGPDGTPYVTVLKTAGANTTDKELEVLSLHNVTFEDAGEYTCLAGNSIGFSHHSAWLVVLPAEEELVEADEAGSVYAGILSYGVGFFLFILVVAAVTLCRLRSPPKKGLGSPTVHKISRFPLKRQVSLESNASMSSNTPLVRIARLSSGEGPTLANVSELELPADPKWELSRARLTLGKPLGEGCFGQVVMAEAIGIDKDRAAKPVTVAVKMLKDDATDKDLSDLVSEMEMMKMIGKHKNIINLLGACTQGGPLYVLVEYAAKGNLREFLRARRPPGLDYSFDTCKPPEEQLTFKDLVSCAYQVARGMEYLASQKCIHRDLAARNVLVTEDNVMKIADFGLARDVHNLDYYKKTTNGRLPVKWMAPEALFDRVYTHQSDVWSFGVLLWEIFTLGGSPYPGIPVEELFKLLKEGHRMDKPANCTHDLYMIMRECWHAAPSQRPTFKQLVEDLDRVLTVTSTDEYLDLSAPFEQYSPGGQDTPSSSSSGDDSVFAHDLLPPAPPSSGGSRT
Method: (§4) Ba/F3-FGFR3 (Minus IL3 or Plus IL3) (Cellular Proliferation Assay)
as §2, with “Ba/F3-FGFR3-transfected” for “Ba/F3-KDR-transfected”
as §3

[4] = tested on: Ba/F3-FGFR3-transfected cells; assay: as above; assay type: cell-based; conditions: 24 h; plus 10 ng/ml murine IL3 (counterscreen); read-out: BAF3-FGFR3 (PLUS IL3) pIC50 (converted)
Method: as §4
as §2, with “Ba/F3-FGFR3-transfected” for “Ba/F3-KDR-transfected”
as §3

[5] = target: T3, VEGFR2 (Homo sapiens, UniProt P35968); assay: Biological Assays B: VEGFR2 in vitro kinase inhibitory activity assay; assay type: biochemical; conditions: 0.5 μM ATP, read-out: VEGFR2 pIC50 (converted)
T3 construct: purchased Upstate
T3 sequence (P35968 20-1356): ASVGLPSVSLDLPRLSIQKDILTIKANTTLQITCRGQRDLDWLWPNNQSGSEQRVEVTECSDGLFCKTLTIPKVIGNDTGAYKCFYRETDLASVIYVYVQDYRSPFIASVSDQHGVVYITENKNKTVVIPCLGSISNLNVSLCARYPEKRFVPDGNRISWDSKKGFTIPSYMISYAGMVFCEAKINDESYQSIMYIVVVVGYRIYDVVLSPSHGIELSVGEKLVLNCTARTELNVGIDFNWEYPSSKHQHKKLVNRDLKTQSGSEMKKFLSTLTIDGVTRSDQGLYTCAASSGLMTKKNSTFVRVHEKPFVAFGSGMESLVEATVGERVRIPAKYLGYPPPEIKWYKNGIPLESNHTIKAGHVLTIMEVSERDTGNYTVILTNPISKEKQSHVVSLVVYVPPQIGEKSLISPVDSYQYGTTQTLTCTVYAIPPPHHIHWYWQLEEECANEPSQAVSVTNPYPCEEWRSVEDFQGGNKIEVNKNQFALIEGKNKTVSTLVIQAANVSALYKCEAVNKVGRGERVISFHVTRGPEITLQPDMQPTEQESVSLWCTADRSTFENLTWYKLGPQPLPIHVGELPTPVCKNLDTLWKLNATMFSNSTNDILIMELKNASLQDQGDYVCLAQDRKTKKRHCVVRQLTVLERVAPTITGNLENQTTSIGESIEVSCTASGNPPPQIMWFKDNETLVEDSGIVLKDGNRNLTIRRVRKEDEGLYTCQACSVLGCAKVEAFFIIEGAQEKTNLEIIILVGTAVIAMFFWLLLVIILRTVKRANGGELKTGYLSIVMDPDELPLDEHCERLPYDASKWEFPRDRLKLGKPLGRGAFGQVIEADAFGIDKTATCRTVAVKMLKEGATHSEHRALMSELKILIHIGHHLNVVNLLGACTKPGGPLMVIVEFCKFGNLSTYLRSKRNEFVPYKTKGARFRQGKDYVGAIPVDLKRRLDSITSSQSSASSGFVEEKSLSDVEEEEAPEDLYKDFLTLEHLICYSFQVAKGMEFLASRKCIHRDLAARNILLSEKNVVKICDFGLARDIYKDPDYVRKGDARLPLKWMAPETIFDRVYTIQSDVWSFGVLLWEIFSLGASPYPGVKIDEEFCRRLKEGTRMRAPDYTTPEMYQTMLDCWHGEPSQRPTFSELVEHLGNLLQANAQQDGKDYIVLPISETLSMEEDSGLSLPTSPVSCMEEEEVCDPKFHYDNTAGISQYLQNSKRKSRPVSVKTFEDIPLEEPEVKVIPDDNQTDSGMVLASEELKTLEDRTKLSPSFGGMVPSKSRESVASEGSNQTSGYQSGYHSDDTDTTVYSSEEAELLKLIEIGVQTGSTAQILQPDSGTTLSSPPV
Method: (§5) Biological Assays B FGFR3, VEGFR2 and PDGFR In Vitro Kinase Inhibitory Activity Assays
(§6) Enzymes (from Upstate), prepared at 2× final concentration, were incubated with test compounds, biotinylated Fit3 substrate (biotin-VASSDNEYFYVDF) (Cell Signalling Technology Inc.) and ATP in the appropriate assay buffer (Table 1). The reaction was allowed to proceed for 3 hours (FGFR3), 1 hour (VEGFR2, PDGFR-beta) at room temperature on a plate shaker at 700 rpm before being stopped with 35 mM EDTA, pH 8 (FGFR3, VEGFR2) or 55 mM EDTA, pH 8 (PDGFR-beta). 5× detection mix (50 mM HEPES pH 7.5, 0.1% BSA, 11.34 nM Eu-anti-pY (PY20) (PerkinElmer) 74 nM SA-XL665 (Cisbio) for FGFR3, 50 mM HEPES, pH 7.5, 0.1% BSA, 11.34 nM Eu-anti-pY (PY20), 187.5 nM SA-XL665 for VEGFR2 and 50 mM HEPES, pH 7.5, 0.1% BSA, 11.34 nM Eu-anti-pY (PT66) (PerkinElmer), 375 nM SA-XL665 (Cisbio) for PDGFR-beta) was then added to each well and the plate sealed and incubated at room temperature for one hour on a plate shaker at 700 rpm. The plate was then read on a Packard Fusion plate reader or a BMG Pherastar both in TRF mode.

[6] = target: T4, Ba/F3-TEL-FGFR3 cells (Homo sapiens, UniProt P22607); assay: Ba/F3-TEL-FGFR3 cell proliferation assay; assay type: cell-based; conditions: 72 hours
T4 construct: fused on or other part: P41212 (Transcription factor ETV6)
T4 sequence (P22607 whole entry, change not shown, the tested form may be a part): as the sequence (P22607 whole entry, change not shown) above
Method: (§7) Ba/F3-TEL-FGFR3 & Ba/F3 (WT) Cell Proliferation Assays
(§8) Stably transfected Ba/F3-TEL-FGFR3 cells were plated out into black 96-well tissue culture plates with clear bottoms in RPMI medium containing 10% FBS and 0.25 mg/ml G418 at a density of 5×10^3 cells/well (200 μl per well). The parental wild-type Ba/F3 cells (DSMZ no.: ACC 300) were plated out into black 96-well tissue culture plates with clear bottoms in RPMI medium containing 10% FBS and 2 ng/ml mouse IL-3 (R&D Sysems) at a density of 2.5×10^3 cells/well (200 μl per well). Plates were placed in an incubator overnight before adding the compounds the following day. Dilutions of compounds were made in DMSO starting at 10 mM and were diluted into the wells to give a final DMSO concentration of 0.1% in assay. Compounds were left on the cells for 72 hours before the plates were removed from the incubator and 20 μl of Alamar Blue™ (Biosource) was added to each well. Plates were placed in the incubator for 4-6 hours before reading plates at 535 nm (excitation)/590 nm (emission) on a Fusion plate reader (Packard). Where inhibition is high an IC50 can be determined.

[7] = target: T5, FGFR3 (Homo sapiens, UniProt P22607); assay: Biological Assays B: FGFR3 in vitro kinase inhibitory activity assay; assay type: biochemical; conditions: 8 μM ATP, read-out: FGFR3 pIC50 (converted)
T5 construct: purchased Upstate
T5 sequence (P22607 23-806): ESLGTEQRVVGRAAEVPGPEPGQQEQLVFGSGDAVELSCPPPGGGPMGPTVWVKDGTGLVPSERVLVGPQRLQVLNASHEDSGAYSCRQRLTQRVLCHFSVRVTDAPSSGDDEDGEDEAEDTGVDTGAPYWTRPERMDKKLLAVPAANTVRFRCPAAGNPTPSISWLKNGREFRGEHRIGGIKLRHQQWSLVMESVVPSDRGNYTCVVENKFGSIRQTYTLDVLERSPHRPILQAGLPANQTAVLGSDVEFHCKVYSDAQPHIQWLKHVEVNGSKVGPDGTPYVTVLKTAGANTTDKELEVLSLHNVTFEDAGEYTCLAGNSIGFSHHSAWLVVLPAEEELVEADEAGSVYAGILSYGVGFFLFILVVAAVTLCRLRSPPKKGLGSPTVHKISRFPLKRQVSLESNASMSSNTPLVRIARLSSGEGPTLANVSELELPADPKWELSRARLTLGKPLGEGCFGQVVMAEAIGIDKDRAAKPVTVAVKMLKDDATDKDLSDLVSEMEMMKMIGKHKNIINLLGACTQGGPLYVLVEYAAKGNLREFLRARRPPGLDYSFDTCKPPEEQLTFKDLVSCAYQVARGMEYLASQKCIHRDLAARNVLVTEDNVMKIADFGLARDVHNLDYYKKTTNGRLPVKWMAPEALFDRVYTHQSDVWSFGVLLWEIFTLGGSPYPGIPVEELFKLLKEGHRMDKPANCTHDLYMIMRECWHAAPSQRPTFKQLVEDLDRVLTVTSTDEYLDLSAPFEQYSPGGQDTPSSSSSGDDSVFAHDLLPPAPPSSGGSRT
Method: as §5, §6

[8] = tested on: parental wild-type Ba/F3 cells; assay: Ba/F3 (WT) cell proliferation assay; assay type: cell-based; conditions: BaF3; 72 hours, 2 ng/ml mouse IL-3; read-out: BAF3_WT pIC50 (converted)
Method: as §7, §8

Structure (SMILES) | IC50 [1] [µM] | BAF3-KDR (MIN IL3) pIC50 [2] | BAF3-FGFR3 (MIN IL3) pIC50 [3] | IC50 [4] [µM] | melting point [°C] | IC50 [5] [µM] | BAF3_TEL_FGFR3 pIC50 [6] | IC50 [7] [µM] | IC50 [8] [µM]
COc1cc(OC)cc(C(=O)c2ccc3ncc(-c4cnn(C)c4)nc3c2)c1 [Compound 2] | > 10 | <5 | 5.17 | > 10 | 162 |  |  |  | 
COc1cc(OC)cc(/C(=C/C#N)c2ccc3ncc(-c4cnn(C)c4)nc3c2)c1 [Compound 3] | > 10 | <5 | 5.29 | > 10 | 223 |  |  |  | 
COc1cc(OC)cc(/C(=C\C#N)c2ccc3ncc(-c4cnn(C)c4)nc3c2)c1 [Compound 4] | > 10 | <5 | 5.76 | > 10 | 204 |  |  |  | 
COc1cc(OC)cc(/C(=C\CNC(C)C)c2ccc3ncc(-c4cnn(C)c4)nc3c2)c1 [Compound 8, {(Z)-3-(3,5-Dimethoxy-phenyl)-3-[3-(1-methyl-1H-pyrazol-4-yl)-quinoxalin-6-yl]-allyl}-isopropyl-amine] | > 10 | 5.18 | 6.72 | > 10 | 164 |  |  |  | 
COc1cc(OC)cc(/C(=C\CN(C)C)c2ccc3ncc(-c4cnn(C)c4)nc3c2)c1 [Compound 10, {(Z)-3-(3,5-Dimethoxy-phenyl)-3-[3-(1-methyl-1H-pyrazol-4-yl)-quinoxalin-6-yl]-allyl}-dimethyl-amine] | > 10 | <5 | 6.27 | > 10 | 164 |  |  |  | 
COc1cc(OC)cc(C(CC#N)c2ccc3ncc(-c4cnn(C)c4)nc3c2)c1 (stereo not shown) [Compound 18] | > 10 | <5 | 5.48 | > 10 |  | 6.31 |  |  | 
COc1cc(OC)cc(C(CCN)c2ccc3ncc(-c4cnn(C)c4)nc3c2)c1.Cl (stereo not shown) [Compound 20] | > 10 | <5 | 6.04 | > 10 | 211 | 3.16 |  |  | 
COc1cc(OC)cc(C(CCO)c2ccc3ncc(-c4cnn(C)c4)nc3c2)c1 (stereo not shown) [Compound 22] | > 10 | <5 | 5.65 | > 10 | 114 | 3.98 | 6.85 |  | 
COc1cc(OC)cc(C(CC(=O)NC(C)C)c2ccc3ncc(-c4cnn(C)c4)nc3c2)c1 (stereo not shown) [Compound 23] | > 10 | <5 | <5 | > 10 | 186 |  |  |  | 
COc1cc(OC)cc(C(CCNC(C)C)c2ccc3ncc(-c4cnn(C)c4)nc3c2)c1.Cl (stereo not shown) [Compound 29, {3-(3,5-Dimethoxy-phenyl)-3-[3-(1-methyl-1H-pyrazol-4-yl)-quinoxalin-6-yl]-propyl}-isopropyl-amine] | > 10 | <5 | 6.44 | > 10 | 148 | 1 | 7.7 | 0.02 | 5.01
COc1cc(OC)cc(C2(c3ccc4ncc(-c5cnn(C)c5)nc4c3)CC2)c1 [Compound 30] | > 10 | <5 | 5.63 | > 10 | 140 | 0.282 |  | 0.02 | 
COc1cc(OC)cc(C(CCNCC(F)(F)F)c2ccc3ncc(-c4cnn(C)c4)nc3c2)c1.Cl (stereo not shown) [Compound 33] | > 10 | <5 | ~5.11 | > 10 | 162 |  |  |  | 
COc1cc(OC)cc(/C(=C/CN(C)C)c2ccc3ncc(-c4cnn(C)c4)nc3c2)c1 [Compound 34] | > 10 | <5 | ~5.13 | > 10 | 177 |  |  |  | 
COc1cc(OC)cc(C(CCCN)c2ccc3ncc(-c4cnn(C)c4)nc3c2)c1.Cl (stereo not shown) [Compound 40] | > 10 | <5 | 5.27 | > 10 | 140 |  |  |  | 
